Like-named read-outs stand apart in the source and are kept apart here.
Key:
Type in all cases: in vivo
[1] = system: silverleaf whitefly (Bemisia argentifolii Bellows and Perring); experiment: Test A: silverleaf whitefly control on cotton or soybean plants, spray, insect mortality after 13 days; conditions: Bemisia argentifolii, applied alone, read-out: % Mortality (obs)
Description: (§1) The pest control protection afforded by the mixtures or compositions is not limited, however, to these species. The analysis of enhanced activity between the mixtures or compositions was determined using Colby's equation. The average % mortality data for the test compounds alone were inserted into the Colby's equation. If the observed (obs) average % mortality was higher than “p”, the expected (exp) % mortality, the mixture or composition had enhanced effects. If the observed average % mortality was equal to or lower than the expected mortality, the mixture or composition either had no enhanced effect. For bioassays where insect feeding damage was evaluated, enhanced activity is identified when the observed plant damage is less than the expected plant damage rating; ratings ranged between 0 (no damage) and 10 (dead plant) and each value was converted to a % plant protection. 100−(Obs Plant Damage*10)
For evaluating control of silverleaf whitefly (Bemisia argentifolii Bellows and Perring) through contact and/or systemic means, each test unit consisted of a small open container with a 12- to 14-day-old cotton plant or 5-7 day old soybean plant inside. This was pre-infested by placing test units into cages containing adult whiteflies so that oviposition on the cotton leaves could occur. The adults were removed from the plants with an air-blast nozzle, and the test units were capped. The test units were then stored 2 to 3 days before spraying.
Test compounds were formulated using a solution containing 10% acetone, 90% water and 300 ppm Activator 90@ Spreader Lo-Foam Formula non-ionic surfactant containing alkylarylpolyoxyethylene, free fatty acids, glycols and 2-propanol (Loveland Industries, Inc.) to provide the desired concentration in ppm. Formulated test solutions were then applied in 1 mL volumes through a SUJ2 atomizer nozzle with ⅛ JJ custom body (Spraying Systems Co.) positioned 1.27 cm (0.5 inches) above the top of each test unit.
The results for all experimental compositions in this test were replicated three times. After spraying of the formulated test composition, each test unit was allowed to dry for 1 hour and the cap removed. The test units were held for 13 days in a growth chamber at 28° C. and 50-70% relative humidity.

[2] = system: diamondback moth (Plutella xylostella L.); experiment: Test E: diamondback moth control on mustard plants, contact and/or systemic, plant damage rating after 6 days
Description: as §1
For evaluating control of diamondback moth (Plutella xylostella L.) through contact and/or systemic means, each test unit consisted of a small open container with a 10- to 12-day-old mustard plant inside. Test compounds were formulated and sprayed with 3 replications as described for Test A. After spraying, the test units were allowed to dry for 1 hour before they were infested with 30-50 neonate larvae. A black, screened cap was placed on the top of each container. The test units were held for 6 days in a growth chamber at 24-25° C. and 70% relative humidity. Each test unit was then visually assessed for plant damage and rated 0-10, where 0=undamaged and 10=plant is dead; the results are listed in Tables 6a-b.

[3] = system: fall armyworm (Spodoptera frugiperda (J. E. Smith)); experiment: Test E: fall armyworm control on corn plants, plant damage rating and mortality after 6 days; conditions: Spodoptera frugiperda, 144 h, read-out: Plant Protection (obs)
Description: as §1
For evaluating control of fall armyworm (Spodoptera frugiperda (J. E. Smith)) the test unit consisted of a small open container with a 4-5-day-old corn (maize) plant inside. This was pre-infested with 10-15 1-day-old larvae on a piece of insect diet. Test compounds were formulated and sprayed with 3 replications as described for Test A. After spraying of the formulated test compound, the test units were maintained in a growth chamber for 6 days at 25° C. and 70% relative humidity. Plant feeding damage was then visually assessed based on foliage consumed, and larvae were assessed for mortality. Each test unit was then visually assessed for plant damage and rated 0-10, where 0=undamaged and 10=plant is dead; the results are listed in Tables 6d-i.

[4] = system: cotton melon aphid (Aphis gossypii Glover); experiment: Test D: cotton melon aphid control on okra plants, insect mortality after 6 days; conditions: Aphis gossypii, read-out: % Mortality (obs)
Description: The analysis of enhanced activity between the mixtures or compositions was determined using Colby's equation. The average % mortality data for the test compounds alone were inserted into the Colby's equation. If the observed (obs) average % mortality was higher than “p”, the expected (exp) % mortality, the mixture or composition had enhanced effects. If the observed average % mortality was equal to or lower than the expected mortality, the mixture or composition either had no enhanced effect. For bioassays where insect feeding damage was evaluated, enhanced activity is identified when the observed plant damage is less than the expected plant damage rating; ratings ranged between 0 (no damage) and 10 (dead plant) and each value was converted to a % plant protection. 100−(Obs Plant Damage*10)
For evaluating control of cotton melon aphid (Aphis gossypii Glover) through contact and/or systemic means, each test unit consisted of a small open container with a 6- to 7-day-old okra plant inside. This was pre-infested by placing on a leaf of the test plant 30 to 40 aphids on a piece of leaf excised from a culture plant (cut-leaf method). The […] moved onto the test plant as the leaf piece desiccated. After pre-infestation, the soil of the test unit was covered with a layer of sand.
Test compounds were formulated and sprayed as described for Test A. The applications were replicated three times. After spraying of the formulated test compounds, each test unit was allowed to dry for 1 hour and then a black, screened cap was placed on top. […]

O=C(NC1(C(F)F)CC1)c1cccc2nn(-c3cccnc3)cc12 [Cpd 5, N-[1-(difluoromethyl)cyclopropyl]-2-(3-pyridinyl)-2H-indazole-4-carboxamide]
mortality at 50 ppm ([1]; 2 h, Table 2h): 0% | mortality at 250 ppm ([1]; 2 h, Table 2h): 6.9% | mortality at 50 ppm ([1]; 48 h, Table 2d): 8.9% | mortality at 250 ppm ([1]; 48 h, Table 2d): 11.7% | mortality at 50 ppm ([1]; Table 2a): 17% | mortality at 250 ppm ([1]; Table 2a): 13.5% | mortality at 50 ppm ([1]; Table 2b): 49% | mortality at 250 ppm ([1]; Table 2b): 19.2% | mortality at 50 ppm ([1]; Table 2c): 56.5% | mortality at 250 ppm ([1]; Table 2c): 41.1% | mortality at 50 ppm ([1]; Table 2e): 56.3% | mortality at 250 ppm ([1]; Table 2e): 11.2% | mortality at 50 ppm ([1]; Table 2f): 84.4% | mortality at 250 ppm ([1]; Table 2f): 55.1% | mortality at 50 ppm ([1]; Table 2g): 30% | mortality at 250 ppm ([1]; Table 2g): 73.4% | mortality at 50 ppm ([1]; Table 2i): 0% | mortality at 250 ppm ([1]; Table 2i): 0% | Plant Protection (obs) ([2]; Table 6a, 50 ppm): 0.0 | Plant Protection (obs) ([2]; Table 6a, 250 ppm): 0.0 | Plant Protection (obs) ([2]; Table 6b, 50 ppm): 0.0 | Plant Protection (obs) ([2]; Table 6b, 250 ppm): 0.0 | pest or weed control at 50 ppm ([3]; Table 6e): 0% | pest or weed control at 250 ppm ([3]; Table 6e): 0% | pest or weed control at 50 ppm ([3]; Table 6f): 0% | pest or weed control at 250 ppm ([3]; Table 6f): 0% | pest or weed control at 50 ppm ([3]; Table 6g): 0% | pest or weed control at 250 ppm ([3]; Table 6g): 0% | pest or weed control at 50 ppm ([3]; Table 6i): 0% | pest or weed control at 250 ppm ([3]; Table 6i): 13.3% | pest or weed control at 50 ppm ([3]; Table 6h): 0% | pest or weed control at 250 ppm ([3]; Table 6h): 0% | pest or weed control at 50 ppm ([3]; Table 6d): 0% | pest or weed control at 250 ppm ([3]; Table 6d): 13.3% | mortality at 0.12 ppm ([4]; 5 h, Table 5h): 40% | mortality at 0.18 ppm ([4]; 5 h, Table 5h): 68.4% | mortality at 0.12 ppm ([4]; 120 h, Table 5d): 34% | mortality at 0.18 ppm ([4]; 120 h, Table 5d): 62.7% | mortality at 0.12 ppm ([4]; Table 5a): 34% | mortality at 0.18 ppm ([4]; Table 5a): 62.7% | mortality at 0.12 ppm ([4]; Table 5b): 34% | mortality at 0.18 ppm ([4]; Table 5b): 62.7% | mortality at 0.12 ppm ([4]; Table 5c): 73.3% | mortality at 0.18 ppm ([4]; Table 5c): 6.7% | mortality at 0.12 ppm ([4]; Table 5e): 32.2% | mortality at 0.18 ppm ([4]; Table 5e): 61.6% | mortality at 0.12 ppm ([4]; Table 5f): 44.9% | mortality at 0.18 ppm ([4]; Table 5f): 58.9% | mortality at 0.12 ppm ([4]; Table 5g): 25.8% | mortality at 0.18 ppm ([4]; Table 5g): 44.3% | mortality at 0.12 ppm ([4]; Table 5i): 41.6% | mortality at 0.18 ppm ([4]; Table 5i): 70.3% | mortality at 0.12 ppm ([4]; Table 5j): 41.6% | mortality at 0.18 ppm ([4]; Table 5j): 70.3% | mortality at 0.12 ppm ([4]; Table 5k): 35.9% | mortality at 0.18 ppm ([4]; Table 5k): 67.2% | mortality at 0.12 ppm ([4]; Table 5l): 35.9% | mortality at 0.18 ppm ([4]; Table 5l): 67.2% | mortality at 0.12 ppm ([4]; Table 5m): 37.3% | mortality at 0.18 ppm ([4]; Table 5m): 61.7% | mortality at 0.12 ppm ([4]; Table 5n): 48.9% | mortality at 0.18 ppm ([4]; Table 5n): 77.7%

Source: patent US12419307B2, “Mixtures comprising indazole pesticides” (FMC Corporation, priority 2019, dated 2025)
